The subject of one data set is SCLC. The following applies: relapsed / second-line SCLC patients; cited from earlier work.
Data set [1] deals with SBC3 cells. The experiment in a line: Immunoblotting of cell lysates (pDRP1, p53, DNA damage markers). Format: cell-based, human. The method, then: (§1) SCLC total cell lysates were prepared using RIPA (radioimmunoprecipitation assay lysis buffer) lysis buffer. Protein concentration was determined using DC Protein Assay Kit Bio-Rad (Hercules, CA). Samples were then run on SDS-PAGE in 4-15% polyacrylamide gels and transferred onto Immobilon membranes (Millipore, MO), blocked, incubated with specific primary antibodies at 4° C. overnight, and subsequently developed with secondary antibodies. The following primary antibody were used: pan-Actin, Phospho-DRP1 (Ser^616), Phospho-DRP1 (Ser^637), Histone H2B (V^119), Phospho-Histone H2A.X (Ser^139), Phospho-P53 (Ser^15), P-53, Cleaved PARP (Asp^214) (D64E10), Phospho-Chk1 (Ser^345) (133D3) and p21 were from Cell Signaling Technology (City of Industry, CA), β-Actin (Sigma-Aldrich, St. Luis, MO), Phospho RNA Polymerase II (S2) antibody (Bethyl Lab, Montgomery, TX), RNA Polymerase II CTD4H8 (BioLegend, San Diego, CA), DHODH (E-8), DRP1 (C-5), GAPDH (0411), c-Myc (9E10), Tom20 (F-10), FisI (B-5), OPA1 (D-9), antibodies from Santa Cruz Biotechnology (Dallas, TX) and MFN2 (Abcam, Boston, MA) and Chk1, MDM2, Cyclin CDK4 and D1, and E2F1 (Proteintech, Rosemont, IL).

The test system of a further data set is SBC5 SCLC cell line. The data set is described as follows: Immunoblotting of DRP1 phosphorylation. Format: cell-based, human. To be noted: SBC5 as printed. On the procedure:
as §1
Although mitochondrial areas of SBC5 cells were not affected with treatment, elongations of individual mitochondria were detected with each treatment.

The subject of data set [2] is SBC3 cells. The experiment in a line: IncuCyte S3 live-cell proliferation. Format: cell-based, human. The method, then: (§2) FIGS. 2A-2I. Teriflunomide (Teri) affects the phosphorylation of DRP1 at Ser^616 and mitochondrial/nuclear morphology. FIG. 2A: Effect of Teri and Leflu on SBC3, and SBC5 cells proliferation was recorded by the Sartorius IncuCyte S3 live-cell analysis system (n=2, four technical replicates). […] FIG. 2B: Effect of Teri on DRP1 phosphorylation in SBC3 cells. Cell lysates were subjected to immunoblotting (n=3, biological replicates). FIG. 2C: The expression ratio of level of pDRP1 Ser^616 and Ser^637 to actin was calculated via densitometric analysis of each blot using ImageJ software. The detected ratio of pDRP1 Ser^616 to pDRP1 Ser^637 was calculated and compared in SBC3 cells. […] FIGS. 2D-2E: Calculating pDRP1 Ser^616 fluorescence signal by QuPath software. Bar graphs mean±SE, *p<0.05; **p<0.01; ***p<0.001; ****p<0.0001. Results were analyzed by ANOVA with Tukey post-test. FIG. 2F: The surface areas of SBC3 mitochondria and nuclei were quantified with Imaris Cells modules. The minimal number of SBC3 cells analyzed for each group was 103 (M1 10 μM), and the maximal was 383 (Control). FIG. 2G: SBC5 mitochondria and nuclei surface areas were quantified with Imaris Cells modules. The minimal number of SBC5 cells analyzed for each group was 357 (MDIVI1 10 μM) and the maximal was 570 (Control). Results were analyzed by ANOVA with Tukey post-test, *p<0.05; **p<0.01; ****p<0.0001. Mitochondria in control cells were closely packed around the nuclei and treatment with Teri rearranged the mitochondrial network and extended the area from the nuclei. […] SBC3 cells were treated with drugs for 18 hours, fixed with paraformaldehyde and subjected to IF staining with Tom 20 antibody, nuclei were stained with Hoechst 33342. Scale bar 10 μm. Right inserts represent shape of mitochondria for control and treatments. FIG. 2I: High resolution confocal IF images of mitochondria in SBC5 cells. Scale bar 10 μm. Right inserts represent shape of mitochondria for control and treatments.

Another data set concerns SBC5 cells. The data set is described as follows: IncuCyte S3 live-cell proliferation. The format is cell-based, human. On the procedure:
as §2

Another data set relates to SBC5 xenograft. The experiment in a line: SBC5 mouse xenograft, Carbo/Leflu study. The format is in vivo. The following applies: Carbo 50 mg/kg, Leflu 7.5 mg/kg, i.p. twice a week. The method, then:
Athymic nude nu/nu mice were obtained from Charles River, Wilmington, MA, and were acclimated for a week before beginning the experiment. All animal experiments were carried out in accordance with a protocol approved by the Institutional Animal Care and Use Committee COH (IACUC #16004). For treatments, mice were divided into 4 groups with five mice per group and subcutaneously injected into one flank with 2×10^6 SBC3 or SBC5 cells suspensions in 100 μl of PBS. Treatment started on the 14th day when tumors became palpable. Two in vivo studies were done in this project. SBC3 and SBC 5 xenograft with i) vehicle control, ii) […] 50 mg/kg, iii) Leflu 7.5 mg/kg, and iv) […]/Leflu. SBC3 with i) vehicle control, ii) Lur 0.5 mg/kg, iii) Leflu 3.8 mg/kg, and iv) Lur/Leflu. Treatments were given to mice via i.p. twice a week for 6 weeks. Animals were examined daily for signs of tumor growth. Tumors were measured in two dimensions using calipers and body weights were recorded. Animals were photographed on days 1, 5, 10, 15, 20, 25, 30, 35, and 40 after treatment. Tumors were removed on day 40 and photographed. At the end of the study, the mice were euthanized by CO2 asphyxiation followed by cervical dislocation. The tumor weights were compared between groups using an unpaired Student's t-test. […] Mean immunofluorescence intensities were calculated with ZEN 2.3 Lite software.

Another data set deals with SBC3 xenograft. The data set is described as follows: SBC3 mouse xenograft, Carbo/Leflu study. The format is in vivo. On the procedure: Athymic nude nu/nu mice were obtained from Charles River, Wilmington, MA, and were acclimated for a week before beginning the experiment. All animal experiments were carried out in accordance with a protocol approved by the Institutional Animal Care and Use Committee COH (IACUC #16004). For treatments, mice were divided into 4 groups with five mice per group and subcutaneously injected into one flank with 2×10^6 SBC3 or SBC5 cells suspensions in 100 μl of PBS. Treatment started on the 14th day when tumors became palpable. Two in vivo studies were done in this project. SBC3 and SBC 5 xenograft with i) vehicle control, ii) […] 50 mg/kg, iii) Leflu 7.5 mg/kg, and iv) […]/Leflu. SBC3 with i) vehicle control, ii) Lur 0.5 mg/kg, iii) Leflu 3.8 mg/kg, and iv) Lur/Leflu. Treatments were given to mice via i.p. twice a week for 6 weeks. Animals were examined daily for signs of tumor growth. Tumors were measured in two dimensions using calipers and body weights were recorded. Animals were photographed on days 1, 5, 10, 15, 20, 25, 30, 35, and 40 after treatment. Tumors were removed on day 40 and photographed. At the end of the study, the mice were euthanized by CO2 asphyxiation followed by cervical dislocation. The tumor weights were compared between groups using an unpaired Student's t-test. A portion of the tumor was fixed in 10% buffered formaldehyde solution and paraffin-embedded for immuno-staining. FFPE tumor sections were stained with pDRP Ser^616 antibody. Tumor sections were deparaffinized and rehydrated, followed by heat-mediated antigen retrieval (pH 6, Dako). After permeabilization and blocking, tumor sections were stained with pDRP1 Ser^616 antibody overnight, washed and incubated with Alexa 488 secondary antibody for one hour, mounted and observed on an LSM 880 with a 10×/0.45 NA objective (Carl Zeiss). Immunofluorescent confocal images were acquired for each treatment (magnification:100×). Mean immunofluorescence intensities were calculated with ZEN 2.3 Lite software.

The conditions of data set [3]: cited from earlier work.

`COc1ccc2[nH]c3c(c2c1)CCN[C@]31CS[C@@H]2c3c(OC(C)=O)c(C)c4c(c3[C@H](COC1=O)N1[C@@H]2[C@H]2c3c(cc(C)c(OC)c3O)C[C@@H]([C@@H]1O)N2C)OCO4` [Lurbinectedin, lurbinectedin]: in the data set on SCLC, the ORR was 32.7% and the “median PFS” value is 3.5 months.

Turning to `C/C(O)=C(\C#N)C(=O)Nc1ccc(C(F)(F)F)cc1` [Teriflunomide, teriflunomide], the “ratio of pDRP1 (Ser616) to pDRP1 (Ser637)” value with SBC3 cells [1] (SBC3, densitometry) is “significantly decreased in a dose-dependent manner”. For the same compound, the DRP1 expression level entry in the data set on SBC3 cells [1] (SBC3, immunoblot) is on record as “unaffected”; with SBC5 SCLC cell line it was “unaffected”. In addition, the “DRP1 phosphorylation at Ser616, and Ser637” value in the data set with SBC3 cells [1] (SBC3, immunoblot) was “significantly inhibited”; in the data set with SBC5 SCLC cell line, “significantly inhibits”. Besides, the cell proliferation result in the data set with SBC3 cells [2] and with SBC5 cells was “inhibited cell proliferation in a dose-dependent manner” in each case.

As to `Cc1oncc1C(=O)Nc1ccc(C(F)(F)F)cc1` [Leflunomide, leflunomide], the cell proliferation entry in the data set on SBC3 cells [2] and in the data set with SBC5 cells was “inhibited cell proliferation in a dose-dependent manner” in each case. For the same compound, the “final tumor weight (day 40)” value in the data set on SBC5 xenograft was 1.49 ± 0.20 g. The “pDRP1 Ser616 immunofluorescence in tumor sections” value in the data set on SBC3 xenograft (SBC3 xenograft FFPE tumors) is given as “significant decrease”. Besides, the “reduction in tumor size/weight” value in the data set on SBC3 xenograft (SBC3 xenograft, day 40, vs control) was around 36%. Also, the “average final tumor weight at end of study (day 40)” value with SBC3 xenograft (SBC3 xenograft, Carbo 50 mg/kg, Leflu 7.5 mg/kg, i.p. twice a week) stood at 1.01 ± 0.14 g. For the same compound, the safety profile result in data set [3] (up to 40 mg/day, patients with Wegner's granulomatosis) is “safety profile like the 20 mg/day dose”. In addition, the “time to attain steady state concentrations” value in data set [3] (without a loading dose, estimated, FDA label) is “two”.

(Values after patent US20250041313A1, “COMBINATION THERAPY FOR TREATMENT OF CANCER” (CITY OF HOPE, priority 2023, published 2025).)
